Measurements from patent US9642922B2, “Caspase-triggered nano-aggregation probes and methods of use” (The Board of Trustees of the Leland Stanford Junior …, priority 2013, dated 2017).
Numbered stars: 1 amine (or outer) side, 2 acyl side, 3 side chain; on linkers, the order of the positions; unused ones are H or OH. Square brackets hold non-standard residues; d marks the D form. Peptide text beside a SMILES is read from it. * marks the point of attachment. DOTA = O=C(O)CN1CCN(CC(=O)O)CCN(CC(=O)*)CCN(CC(=O)O)CC1; X1 = O=C(C1CSC(c2nc3ccc(N[*:1])cc3s2)=N1)[*:2]; X3 = c1cnc2ccc(OCCCN*)cc2c1; SEt = CCS*

Experiments:
HeLa tumor xenograft = test: PET imaging of HeLa tumor xenograft-bearing nude mice; assay type: in vivo, mouse
Description: One group of animals was scanned at baseline (before treatment) and 4 days post treatment with 0.2 mg doxorubicin injected into the tumor. On the day of scanning, the animals were moved from their housing area to the PET scanner around 1 h prior to the experiment. They were constrained shortly in a tail veiner and injected intravenously, with 440±97 μCi (16±3 MBq) [^18F]C-SNAT formulation. They were anesthetized with 2% isoflurane shortly before placement in an R4 microPET scanner (Siemens Medical Solutions, USA). The anesthesia were continued with 2% isoflurane doing 5 min of acquisition. Scans using the control tracer 1-D (173±73 μCi/9±4 Mbq in 200 μL formulation) were carried out in a similar manner using two groups (one baseline and one treated) instead of the same animals at baseline and after treatment. The images were reconstructed using a standard 2D reconstruction without attenuation correction.
The reconstructed images were analyzed by making two volumes of interest (VOI), one on the tumor and one located on the left shoulder corresponding to muscle/bone mixture. The percent of injected dose per gram tissue (% ID/g) was calculated in each VOI and the ratio between tumor and muscle uptake was calculated based on this uptake (uptake in tumor/uptake in muscle region). The effect of treatment was calculated as the difference in uptake of [^18F]C-SNAT at baseline and after treatment.
Evaluation of activatable PET tracer 1 and control tracer 1-D for PET imaging of caspase-3 activity in vivo was performed in HeLa tumor xenograft-bearing nude mice. Tumors were implanted and grown for a minimum of 10 d before receiving intratumoral injection of 0.2 mg DOX (20 μL). 1 or 1-D (5-15 MBq/135-405 μCi) was injected through the tail vein for PET imaging 4 d post treatment. Static PET scans (5 min) were performed 65, 125 and 182 mins post tracer injection.

[1] = Stability of PET tracers in mouse serum; assay type: in vitro ADME; settings: 1 h incubation, 37° C.
Description: To the mouse serum (500 μL) 100 μL (approximately 100 μCi/3.7 MBq) of radioactive sample was added and the mixture was incubated at 37° C. At each time point, 100 μL of sample was taken and after mixing with 100 μL of acetonitrile was centrifuged at 9,400×g for 5 min. The resulting supernatants were collected, and an aliquot of each supernatant (100 μL) was diluted with 100 μL of water and analyzed via the same HPLC method used for quality control (fitted with a highly sensitive positron detector for radioactivity). The percent ratio of intact compound to the total radioactivity on the HPLC chromatogram was calculated as %=[(peak area for intact compound)/(total peak area)]×100.

caspase-3 [2] = biological target: T1, caspase-3 (Homo sapiens, UniProt P42574); test: Incubation of PET tracer with recombinant caspase-3, radio-HPLC; assay type: biochemical; settings: same condition
T1 sequence (P42574 29-175 limits assumed): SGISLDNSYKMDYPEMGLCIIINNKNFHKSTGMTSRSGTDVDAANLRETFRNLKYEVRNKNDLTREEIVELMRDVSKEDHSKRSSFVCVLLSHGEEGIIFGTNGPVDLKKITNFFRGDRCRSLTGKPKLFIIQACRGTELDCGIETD
T1 sequence (P42574 176-277 limits assumed): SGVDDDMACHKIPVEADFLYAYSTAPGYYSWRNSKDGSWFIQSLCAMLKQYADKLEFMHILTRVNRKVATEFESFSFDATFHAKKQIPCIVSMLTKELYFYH
Description: To evaluate the activatable PET tracer 1 for caspase-3 detection, it was first incubated with recombinant caspase-3 in buffer.

HeLa cells = test: ICP-MS cellular uptake of Gd in HeLa cells; assay type: cell-based, human; settings: 250 μM, 24 h
Description: The cellular uptake of Gd was studied by inductively-coupled plasma mass spectrometry (ICP-MS) analysis of the amount of Gd in viable and apoptotic cells after incubation with probe 15 (50-250 μM) for 24 h. […] This uptake enhancement was inhibitable by Z-VAD-fmk (50 μM), confirming the caspase-3-dependent accumulation of probe 15 in apoptotic cells.

[3] = Water proton r1 relaxivity measurement; assay type: physicochemical; settings: 1 T
Description: Water proton r1 relaxivities of probe 15 and 1-ctrl (19) before and after caspase-3 incubation were then measured at 1, 1.5 and 3 T. For comparison, the isolated cyclized products 2-I and 2-II were also measured.
A series of solutions containing contrast agents with five different concentrations (0.05-0.5 mM) in Caspase buffer (pH 7.4) were treated with or without Casp-3 (50 nM) at 37° C. overnight. The solutions were placed in PCR tubes, bundled together, and MR-imaged at 1 T (Bruker Icon, Bruker BioSpin Corp.), […], 1.5 and 3 T (Signa HDx, GE Healthcare) at room temperature.
The scanning procedure began with a localizer and then consisted of a series of inversion-prepared fast spin echo scans, identical in all aspects (TR 8000 ms (6000 ms for Bruker Icon), TE minimum, field of view 6 cm, slice thickness 2 mm, matrix 128×128, NEX 1) except for the inversion time (TI) that was varied as: 4000, 2400, 1200, 800, 600, 400, 300, 200, 100, and 50 ms. For quantitative data analysis, the acquired MR images were transferred as DICOM images to an offline workstation, and signal intensities were extracted from each of the 5 samples at each of the 10 TI times by manual region of interest (ROI) placement and voxel averaging within the ROI.
Signal intensity versus TI relationships were fit to the following exponential T1 recovery model by non-linear least squares regression: SI (TI)=S0[1−2*exp(−TI/T1)+exp(−TR/T1)]. Relaxation rates (R1) were determined as 1/T1. Longitudinal relaxivities (r1, units of mM^−1s^−1) were calculated as the slope of R1 vs [Gd] after the determination of true Gd concentration of each sample by the ICP-MS measurement.

caspase-3 [4] = biological target: T1, caspase-3; test: HPLC assay of caspase-3-triggered cyclization of MRI probe 15; assay type: biochemical; parameters: purchased Sigma; host or cells: E. coli
Description: The progression of caspase-3-triggered intramolecular cyclization of probe 15 in solution was investigated by incubation (200 μM) with recombinant human caspase-3 (50 nM) using high-performance liquid chromatography (HPLC). […] More than 90% of probe 15 and its disulfide bond reduced intermediates could be converted after 5 h (FIG. 27B).

subcutaneous HeLa tumors = test: In vivo MR imaging of doxorubicin-treated HeLa tumors; parameters: species or system mouse; settings: up to 4 h
Description: Evaluation of activatable contrast agent probe 15 for MR imaging of caspase-3 activity in vivo was performed in nude mice bearing subcutaneous HeLa tumors. Tumors were implanted and grown for 10-15 days before receiving intratumoral injections of two doses of 0.2 mg doxorubicin separated by 2 days. Probe 15 or 1-ctrl (19) (0.1 mmol kg^−1) was injected intravenously the day before treatment (baseline) and four days post-treatment (treated). Spin-echo T1-weighted multislice MR images at 1 T were recorded before (pre-contrast) and every 4 min after contrast agent administration (post-contrast), and scanning was carried out for 4 h post-contrast for each mouse. Much brighter MR signals (T1 contrast) were observed 40 and 120 min after injection with probe 15 in treated tumors as compared to that in baseline tumors (FIG. 29A), or in treated tumors with 1-ctrl (19) (FIG. 29B).
In vivo MR imaging was performed on an Aspect M2 1T permanent magnet (Aspect Imaging, Shoham, Israel) using a 40 mm Transmit/Receive mouse body coil. During imaging, the animals were anaesthetized with isofluorane and their respiration and body temperature were constantly monitored. Intravenous contrast injection at 0.1 mmol/kg concentration was administered in a 100 μL volume for every imaging session. Multi-slice (312 μm in-plane, 12 slices with 1 mm thickness) T1-weighted spin echo images (TE/TR=8.9/250 ms, matrix 128×128, FOV=40 mm, NEX=6) were acquired, one before contrast injection and then every 4 min up to 4 h after contrast injection. A 1 mM Dotarem reference tube was inserted in the field of view to enable inter-session variability correction during post-processing. Each animal underwent two imaging session; one before DOX treatment (baseline), and one after DOX treatment (treated).
Acquired MR data were transferred as DICOM images to an offline workstation and ImageJ (NIH) was used for post processing and quantitative image analysis. This consisted of manual segmentation of tumor ROI for each slice, slice-wise normalization of mean tumor signal intensity with the 1 mM Dotarem reference standard to account for inter-session variability, followed by combining these normalized, slice-wise values to generate mean volumetric tumor signal intensities (SI) for each time point.
Signal enhancement was calculated at each time point as the difference between the tumor SI at that time point and the tumor SI in the pre-contrast (t=0) dataset. SE(t)=SI(t)−SI(t=0); for each mouse, for every session
This metric was used to quantify the difference in SE between the baseline (before DOX treatment) session and the treated session for each mouse, as a means to tease out the difference between the two contrast agents, probe 1 and 1-cntl (19) over the time course of the imaging session. % D(t)=[SE(t,treated)−SE(t,baseline)]/SE(t,baseline); for each mouse.

HeLa cell pellets = test: MRI T1 of HeLa cell pellets at 1 T; assay type: cell-based, human; settings: 250 μM, 24 h
Text: Thus, higher caspase-3 activity in apoptotic cells can trap probe 15 inside cells, resulting in higher MRI contrast for cell apoptosis imaging.

intact tracer in mouse serum [1] [%]	cleavage by caspase-3 (caspase-3 [2])	reduction of relaxivity after incubation with caspase-3 [3] [%]	r1 relaxivity without caspase-3 activation [3] [mM⁻¹ s⁻¹]	Structure (SMILES)	uptake difference between before and after treatment (HeLa tumor xenograft; control tracer)	change of T/M ratio (HeLa tumor xenograft; mouse, in vivo)	uptake in treated and non-treated tumors compared with 1 (HeLa tumor xenograft; mouse, in vivo)	uptake of Gd in STS-treated cells compared with probe 15 (HeLa cells)	products observed after incubation with caspase-3 (caspase-3 [4])	difference in SI enhancement between treated and baseline tumors (subcutaneous HeLa tumors)	difference in T1 between STS-treated and non-treated cells (HeLa cell pellets)
90	could not be cleaved by caspase-3	–	–	CSCC(NC(=O)C(CC(=O)O)NC(=O)C(NC(=O)C(CCC(=O)O)NC(=O)C(CC(=O)O)NC(C)=O)C(C)C)C(=O)NC(Cc1cn(CCOCCOCCOCC[18F])nn1)C(=O)Nc1ccc2nc(C3=NC(C(=O)NCCCOc4ccc5ncccc5c4)CS3)sc2c1 (stereo not drawn) [1-D]	less than 0.2 % ID/g	did not show significant increases	much lower than that of 1	–	–	–	–
–	–	14	–	CCSSCC(NC(=O)C(CC(=O)O)NC(=O)C(NC(=O)C(CCC(=O)O)NC(=O)C(CC(=O)O)NC(C)=O)C(C)C)C(=O)NC(CCCCNC(=O)CN1CCN(CC(=O)[O-])CCN(CC(=O)[O-])CCN(CC(=O)[O-])CC1)C(=O)Nc1ccc2nc(C3=NC(C(=O)NCCCOc4ccc5ncccc5c4)CS3)sc2c1.[Gd+3] (stereo not drawn) [1-ctrl (19)] (Ac-DEVDC(SEt)K(DOTA)[X1]-X3; configuration not given here)	–	–	–	much lower uptake of Gd	only the DEVD peptide cleaved and disulfide reduced product was observed	no significant difference in SI enhancement	–
–	–	–	4.8	CNC[C@H](O)[C@@H](O)[C@H](O)[C@H](O)CO.O=C([O-])CN1CCN(CC(=O)[O-])CCN(CC(=O)O)CCN(CC(=O)[O-])CC1.[Gd+3] [Dotarem, reference compound]	–	–	–	much lower uptake of Gd	–	–	no significant reduction in T1
